Data published in patent US8269000B2, “Substituted pyrimidine and triazine compounds” (Gruenenthal GmbH, priority 2008, dated 2012).
Counter-ions that a name gives are not always drawn.

Columns and labels:
rat B1R = target: T1, rat B1R (Rattus norvegicus, UniProt P97583); assay: FLIPR Ca2+ functional study on bradykinin receptor 1 (rB1R CHO K1 cells); assay type: cell-based; conditions: CHO-K1, % inhibition rat B1R at 10 μM, read-out: % inh. (rat B1R) 10 μM
T1 construct: expressed in transfected cells; host or cells: CHO K1 cells
T1 sequence (P97583 1-337): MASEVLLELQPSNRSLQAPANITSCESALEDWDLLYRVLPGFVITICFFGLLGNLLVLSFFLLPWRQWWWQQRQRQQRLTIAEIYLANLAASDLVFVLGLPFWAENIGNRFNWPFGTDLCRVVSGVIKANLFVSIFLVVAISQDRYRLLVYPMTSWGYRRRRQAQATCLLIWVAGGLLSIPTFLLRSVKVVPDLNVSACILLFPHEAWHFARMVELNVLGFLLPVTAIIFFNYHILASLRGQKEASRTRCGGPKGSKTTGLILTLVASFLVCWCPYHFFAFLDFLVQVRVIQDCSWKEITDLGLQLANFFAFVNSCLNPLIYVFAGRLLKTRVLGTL
Summary of the method: (§1)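 Antagonism was calculated as % of maximal inhibition of the Ca2+ rise triggered by agonist at EC80 (Lys-Des-Arg9-bradykinin for hB1R, Des-Arg9-bradykinin for rB1R), added 10-20 min after test compound (10 μM or serial dilutions for IC50) to Fluo-4-loaded transfected CHO K1 cells on FLIPR. Duplicates or triplicates, ≥2 independent runs.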

human B1R = target: T2, human B1R (Homo sapiens, UniProt P46663); assay: FLIPR Ca2+ functional study on bradykinin receptor 1 (hB1R CHO K1 cells); assay type: cell-based; conditions: % inhibition human B1R at 10 μM, read-out: % inh. (hum. B1R) 10 μM
T2 construct: expressed in transfected cells; host or cells: CHO K1 cells
T2 sequence (P46663 1-353): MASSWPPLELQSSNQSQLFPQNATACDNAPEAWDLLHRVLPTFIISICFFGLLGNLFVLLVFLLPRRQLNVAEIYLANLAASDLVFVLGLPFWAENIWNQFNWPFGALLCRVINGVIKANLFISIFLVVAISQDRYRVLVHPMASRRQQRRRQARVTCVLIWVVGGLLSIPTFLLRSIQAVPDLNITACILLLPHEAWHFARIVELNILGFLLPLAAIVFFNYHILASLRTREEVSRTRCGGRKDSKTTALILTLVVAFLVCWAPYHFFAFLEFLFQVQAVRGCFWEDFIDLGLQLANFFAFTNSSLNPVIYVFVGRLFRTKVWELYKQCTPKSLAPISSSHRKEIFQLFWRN
Summary of the method: as §1

Row | SMILES | inhibition at 10 µM (rat B1R) | inhibition at 10 µM (human B1R)
1 | COc1cc(C)c(S(=O)(=O)N(CCOc2nccc(N3CCC4(CCN(c5ccncc5)C4)C3)n2)C2CC2)c(C)c1 (stereo not drawn) [Example G-014, N-cyclopropyl-4-methoxy-2,6-dimethyl-N-[2-[[4-[8-(4-pyridyl)-3,8-diazaspiro[4.4]nonan-3-yl]-2-pyrimidinyl]oxy]ethyl]benzenesulfonamide] | 102% | 100%
2 | COc1cc(C)c(S(=O)(=O)N(CCOc2nccc(N3CCc4cc(CN5CCC5)ccc4C3)n2)C2CC2)c(C)c1 [Example G-013, N-[2-[[4-[6-(1-azetidinylmethyl)-3,4-dihydro-1H-isoquinolin-2-yl]-2-pyrimidinyl]oxy]ethyl]-N-cyclopropyl-4-methoxy-2,6-dimethylbenzenesulfonamide] | 102% | 92%
3 | COc1cc(C)c(S(=O)(=O)N2CCCCC2COc2nccc(N3CCC(CCN4CCCC4)CC3)n2)c(C)c1 (stereo not drawn) [G_CC-003, 2-[[1-(4-methoxy-2,6-dimethylphenyl)sulfonyl-2-piperidinyl]methoxy]-4-[4-(2-1-pyrrolidinylethyl)-1-piperidinyl]pyrimidine] | 102% | 100%
4 | COc1cc(C)c(S(=O)(=O)N2CCC[C@H]2COc2nccc(N3CCC4(CCN(Cc5ccc(F)cc5)C4=O)CC3)n2)c(C)c1 [G_CC-051, 3-[(4-fluorophenyl)methyl]-8-[2-[[(2S)-1-(4-methoxy-2,6-dimethylphenyl)sulfonyl-2-pyrrolidinyl]methoxy]-4-pyrimidinyl]-3,8-diazaspiro[4.5]decan-4-one] | 98% | 38%
5 | COc1cc(C)c(S(=O)(=O)N2CCCCC2COc2nccc(N3CCC(N4CCN(C)CC4)CC3)n2)c(C)c1 (stereo not drawn) [G_CC-011, 2-[[1-(4-methoxy-2,6-dimethylphenyl)sulfonyl-2-piperidinyl]methoxy]-4-[4-(4-methyl-1-piperazinyl)-1-piperidinyl]pyrimidine] | 96% | 91%
6 | COc1cc(C)c(S(=O)(=O)N(C)C(COc2nccc(N3CCC(Oc4ccncc4)CC3)n2)c2ccccc2)c(C)c1 (stereo not drawn) [G_CC-063, 4-methoxy-N,2,6-trimethyl-N-[1-phenyl-2-[[4-[4-(4-pyridyloxy)-1-piperidinyl]-2-pyrimidinyl]oxy]ethyl]benzenesulfonamide] | 101% | 28%
7 | COc1cc(C)c(S(=O)(=O)N2CCCC[C@H]2COc2nccc(N3CCC4(CCN(c5ccncc5)CC4)CC3)n2)c(C)c1 [Example G-026, 3-[2-[[(2S)-1-[(4-methoxy-2,6-dimethyl-phenyl)sulfonyl]-piperidin-2-yl]-methoxy]-pyrimidin-4-yl]-9-pyridin-4-yl-3,9-diazaspiro[5.5]undecane] | 101% | 98%
8 | COc1cc(C)c(S(=O)(=O)N2CCCCC2COc2nccc(N3CCN(C4CCN(C)CC4)CC3)n2)c(C)c1 (stereo not drawn) [G_CC-002, 2-[[1-(4-methoxy-2,6-dimethylphenyl)sulfonyl-2-piperidinyl]methoxy]-4-[4-(1-methyl-4-piperidinyl)-1-piperazinyl]pyrimidine] | 101% | 99%
9 | COc1cc(C)c(S(=O)(=O)N2CCCCC2COc2nccc(N3CCC4(CCN(Cc5ccc(F)cc5)C4=O)CC3)n2)c(C)c1 (stereo not drawn) [G_CC-039, 3-[(4-fluorophenyl)methyl]-8-[2-[[1-(4-methoxy-2,6-dimethylphenyl)sulfonyl-2-piperidinyl]methoxy]-4-pyrimidinyl]-3,8-diazaspiro[4.5]decan-4-one] | 99% | 58%
10 | COc1cc(C)c(S(=O)(=O)N(C)CCOc2nccc(N3CCC(CCN4CCCC4)CC3)n2)c(C)c1 [Example G-001, 4-methoxy-N,2,6-trimethyl-N-[2-[[4-[4-(2-1-pyrrolidinylethyl)-1-piperidinyl]-2-pyrimidinyl]oxy]ethyl]benzenesulfonamide] | 99% | 84%
11 | COc1cc(C)c(S(=O)(=O)N(CCOc2nccc(N3CCC4(CCN(c5ccncc5)CC4)CC3)n2)C2CC2)c(C)c1 [Example G-005, N-cyclopropyl-4-methoxy-2,6-dimethyl-N-[2-[[4-[9-(4-pyridyl)-3,9-diazaspiro[5.5]undecan-3-yl]-2-pyrimidinyl]oxy]ethyl]benzenesulfonamide hydrochloride] | 96% | 99%
12 | COc1cc(C)c(S(=O)(=O)N(CCOc2nccc(N3CCC4(CCC(Oc5ccncc5)CC4)CC3)n2)C2CC2)c(C)c1 [Example G-016, N-cyclopropyl-4-methoxy-2,6-dimethyl-N-[2-[[4-[9-(4-pyridyloxy)-3-azaspiro[5.5]undecan-3-yl]-2-pyrimidinyl]oxy]ethyl]benzenesulfonamide] | 99% | 96%
13 | COc1cc(C)c(S(=O)(=O)N2CCC[C@H]2COc2nccc(N3CCN(c4ccncc4)CC3)n2)c(C)c1 [G_CC-019, 2-[[(2S)-1-(4-methoxy-2,6-dimethylphenyl)sulfonyl-2-pyrrolidinyl]methoxy]-4-[4-(4-pyridyl)-1-piperazinyl]pyrimidine] | 104% | 100%
14 | Cc1cccc(Cl)c1S(=O)(=O)N(CCOc1ccnc(N2CCC3(CCN(c4ccncc4)CC3)CC2)n1)C1CC1 [Example H-006, 2-chloro-N-cyclopropyl-6-methyl-N-[2-[[2-[9-(4-pyridyl)-3,9-diazaspiro[5.5]undecan-3-yl]-4-pyrimidinyl]oxy]ethyl]benzenesulfonamide] | 92% | 64%
15 | COc1cc(C)c(S(=O)(=O)N(CCCc2cncc(N3CCC4(CCN(c5ccncc5)CC4)CC3)n2)C2CC2)c(C)c1 [Example I-006, N-cyclopropyl-4-methoxy-2,6-dimethyl-N-[3-[6-(9-pyridin-4-yl-3,9-diazaspiro[5.5]undecan-3-yl)-pyrazin-2-yl]-propyl]-benzenesulfonic acid amide] | 97% | 94%
16 | COc1cc(C)c(S(=O)(=O)N(CCOc2nccc(N3CCC4(CC3)CCC(OCCN3CCCC3)(c3cccnc3)CC4)n2)C2CC2)c(C)c1 [Example G-023, N-cyclopropyl-4-methoxy-2,6-dimethyl-N-[2-[4-[9-pyridin-3-yl-9-(2-pyrrolidin-1-yl-ethoxy)-3-azaspiro[5.5]undecan-3-yl]-pyrimidin-2-yl]oxy-ethyl]-benzenesulfonic acid amide] | 107% | 94%
17 | COc1cc(C)c(S(=O)(=O)N(CCOc2nccc(N3CCC(OCCN4CCCC4)(c4cccnc4)CC3)n2)C2CC2)c(C)c1 [Example G-007, N-cyclopropyl-4-methoxy-2,6-dimethyl-N-[2-[[4-[4-(3-pyridyl)-4-(2-1-pyrrolidinylethoxy)-1-piperidinyl]-2-pyrimidinyl]oxy]ethyl]benzenesulfonamide] | 97% | 100%
18 | COc1cc(C)c(S(=O)(=O)N(CCOc2nccc(N3CCC4(CCC(N5CCC5)CC4)CC3)n2)C2CC2)c(C)c1 [Example G-015, N-[2-[[4-[9-(1-azetidinyl)-3-azaspiro[5.5]undecan-3-yl]-2-pyrimidinyl]oxy]ethyl]-N-cyclopropyl-4-methoxy-2,6-dimethylbenzenesulfonamide hydrochloride] | 95% | 99%
19 | COc1cc(C)c(S(=O)(=O)N(CCCOc2nccc(N3CCC4(CCN(c5ccncc5)CC4)CC3)n2)C2CC2)c(C)c1 [Example G-025, N-cyclopropyl-4-methoxy-2,6-dimethyl-N-[3-[4-(9-pyridin-4-yl-3,9-diazaspiro[5.5]undecan-3-yl)-pyrimidin-2-yl]oxy-propyl]-benzenesulfonic acid amide] | 104% | 92%
20 | COc1cc(C)c(S(=O)(=O)NC2(COc3nccc(N4CCC5(CCN(c6ccncc6)CC5)CC4)n3)CCC2)c(C)c1 [Example G-022, 4-methoxy-2,6-dimethyl-N-[1-[[4-(9-pyridin-4-yl-3,9-diazaspiro[5.5]undecan-3-yl)-pyrimidin-2-yl]oxy-methyl]-cyclobutyl]-benzenesulfonic acid amide] | 103% | 100%
21 | COc1cc(C)c(S(=O)(=O)N(CCN(C)c2ccnc(N3CCC4(CCN(c5ccncc5)CC4)CC3)n2)C2CC2)c(C)c1 [Example I-004, N-cyclopropyl-4-methoxy-2,6-dimethyl-N-[2-[methyl-[2-(9-pyridin-4-yl-3,9-diazaspiro[5.5]undecan-3-yl)-pyrimidin-4-yl]-amino]-ethyl]-benzenesulfonic acid amide] | 102% | 85%
